Data reported in patent US4599352A, “Antineoplastic platinum (IV) complexes and compositions” (priority 1984, dated 1986).

Legend:
[1] = test system: IP L1210/Cisplatin; test: Activity against IP-implanted L1210/Cisplatin leukemia resistant to cisplatin, 60 day test (Table 4); format: in vivo, Female CD2Fl mice
Method: (§1) Biological properties of the compounds of the present invention were determined following the protocol described in Cancer Chemotherapy Reports, Vol. 3, No. 3, 1972 which report is incorporated herein by reference.
Other known mechanisms of resistance for other classes of agents, such as gene amplification or target enzyme change or amplication, also need to be explored. The experiments summarized in Table 3 were conducted at the same time against both sublines using the same drug preparations. […] These experiments were repeated in a second laboratory as documented in Table 4. However, in these experiments the animals were held for 60 rather than 30 days to evaluate whether or not long-term survivors are produced after drug treatment in a more challenging setting. […]
These experiments (23-00081 3LE31 and 23-00003 3DP3l) were conducted concurrently at the Mason Research Institute, Worcester, MA under the supervision of Dr. William Cobb. See Table 4 for experimental details. The diluent control animals bearing L1210 leukemia lived a median of 8.3 days and gained 1.6 grams by Day 5. […] Female CD2Fl mice were used for these experiments.

[2] = test system: IP L1210 leukemia; test: Mouse optimal (highest tolerated) dose, IP L1210 leukemia, Days 1, 5 and 9 schedule (Table 7); format: in vivo
Text: *IP L1210 leukemia, Days 1, 5 and 9 schedule. Highest tolerated dose in a
least 2 of 3 experiments (i.e,. animal weight difference (testcontrol)

[3] = test system: IP L1210/Cisplatin; test: Activity against IP-implanted L1210/Cisplatin leukemia resistant to cisplatin, 30 day test (Table 3); format: in vivo, Female CD2Fl mice
Method: as §1
(§2) Other known mechanisms of resistance for other classes of agents, such as gene amplification or target enzyme change or amplication, also need to be explored. The experiments summarized in Table 3 were conducted at the same time against both sublines using the same drug preparations. […] These experiments were repeated in a second laboratory as documented in Table 4. However, in these experiments the animals were held for 60 rather than 30 days to evaluate whether or not long-term survivors are produced after drug treatment in a more challenging setting.
This experiment (A8-00005 3LE31) was conducted at the Southern Research Institute, Birmingham, Ala. under the supervision of Dr. Daniel Griswold. The protocols were the same as those published previously (Geran et al., Cancer Chemotherapy Reports 3: No. 2, 1972 [Attachment 11]). 10^5 cells were implanted intraperitoneally in CD2Fl male mice on Day 0. Drug treatments were given intraperitoneally as single injections at the doses indicated on Days 1, 5 and 9 after tumor implantation. The diluent was saline except for NSC-271674 where 5% sodium bicarbonate was used. All drugs were prepared fresh on the day of injection, and all were administered in solution. Median survival times for both control and drug-treated mice were determined and expressed as a percentage (% T/C). Body weights were determined on Day 5 and expressed as a weight difference (body weight of the drug-treated animals minus that of the control animals in grams) (T-C). The diluent control animals lived a median of 8.4 days and gained 1.9 grams by Day 5 in this experiment. All animals, including Day 30 survivors, were used in the calculation of median survival times. The log10 change in tumor burden refers to the net log change in viable tumor cell population at the end of therapy (Rx) as compared to the start of therapy; e.g., a […] means that there was a […] and a 3 log change means there was a 1000-fold increase in tumor burden at the end of therapy. The tumor burden at the start of therapy was about 6.1×10^5 cells in this experiment. […]

[4] = test system: IP L1210; test: Activity against IP-implanted L1210 leukemia sensitive to cisplatin, 30 day test (Table 3); format: in vivo, Female CD2Fl mice
Method: as §1, §2
This experiment (A8-00005 3LE31) was conducted at the Southern Research Institute, Birmingham, Ala. under the supervision of Dr. Daniel Griswold. The protocols were the same as those published previously (Geran et al., Cancer Chemotherapy Reports 3: No. 2, 1972 [Attachment 11]). 10^5 cells were implanted intraperitoneally in CD2Fl male mice on Day 0. Drug treatments were given intraperitoneally as single injections at the doses indicated on Days 1, 5 and 9 after tumor implantation. The diluent was saline except for NSC-271674 where 5% sodium bicarbonate was used. All drugs were prepared fresh on the day of injection, and all were administered in solution. Median survival times for both control and drug-treated mice were determined and expressed as a percentage (% T/C). Body weights were determined on Day 5 and expressed as a weight difference (body weight of the drug-treated animals minus that of the control animals in grams) (T-C). The diluent control animals lived a median of 8.4 days and gained 1.9 grams by Day 5 in this experiment. All animals, including Day 30 survivors, were used in the calculation of median survival times. The log10 change in tumor burden refers to the net log change in viable tumor cell population at the end of therapy (Rx) as compared to the start of therapy; e.g., a […] means that there was a […] and a 3 log change means there was a 1000-fold increase in tumor burden at the end of therapy. The tumor burden at the start of therapy was about 6.1×10^5 cells in this experiment.
These experiments (A8-00008 3LE31 and A8-00001 3DP31) were conducted concurrently at the Southern Research Institute, Birmingham, Ala. under the supervision of Dr. Daniel Griswold. See Table 4 for experimental details. The diluent control animals bearing L1210 leukemia lived a median of 8.6 days and gained 1.3 grams by Day 5. […] Female CD2Fl mice were used for these experiments.

[Cl][Pt-2]1([Cl])([Cl])([Cl])[NH2+][C@H]2CCCC[C@@H]2[NH2+]1 [trans (d), (1S, 2S)-Tetrachloro-trans-1,2-cyclohexanediamine platinum (IV)]
60 Day Survivors/Total ([1]; 1 mg/kg/dose): 0/10 | Body Weight Difference ([1]; 1 mg/kg/dose): -0.4 Grams | Median % T/C ([1]; 1 mg/kg/dose): 125% | 60 Day Survivors/Total ([1]; 2 mg/kg/dose): 0/10 | Body Weight Difference ([1]; 2 mg/kg/dose): -0.2 Grams | Median % T/C ([1]; 2 mg/kg/dose): 147% | 60 Day Survivors/Total ([1]; 4 mg/kg/dose): 6/10 | Body Weight Difference ([1]; 4 mg/kg/dose): -1.4 Grams | Median % T/C ([1]; 4 mg/kg/dose): 645% | 60 Day Survivors/Total ([1]; 8 mg/kg/dose): 1/10 | Body Weight Difference ([1]; 8 mg/kg/dose): -4.8 Grams | Median % T/C ([1]; 8 mg/kg/dose): 193% | 60 Day Survivors/Total ([1]; 16 mg/kg/dose): 0/10 | Body Weight Difference ([1]; 16 mg/kg/dose): -6.1 Grams | Median % T/C ([1]; 16 mg/kg/dose): Toxic | Mouse Optimal Dose (highest tolerated dose in at least 2 of 3 experiments) [2]: 8 mg/kg | 30 Day Survivors/Total ([3]; 1 mg/kg/dose): 0/6 | Approx. Log10 Change in Tumor Burden at End of RX ([3]; 1 mg/kg/dose): ~3.1 log10 | Median % T/C ([3]; 1 mg/kg/dose): 101% | 30 Day Survivors/Total ([3]; 2 mg/kg/dose): 0/6 | Approx. Log10 Change in Tumor Burden at End of RX ([3]; 2 mg/kg/dose): ~2.8 log10 | Median % T/C ([3]; 2 mg/kg/dose): 116% | 30 Day Survivors/Total ([3]; 4 mg/kg/dose): 0/6 | Approx. Log10 Change in Tumor Burden at End of RX ([3]; 4 mg/kg/dose): ~2.4 log10 | Median % T/C ([3]; 4 mg/kg/dose): 139% | 30 Day Survivors/Total ([3]; 8 mg/kg/dose): 3/6 | Approx. Log10 Change in Tumor Burden at End of RX ([3]; 8 mg/kg/dose): ~-5.9 log10 | Median % T/C ([3]; 8 mg/kg/dose): 322% | 30 Day Survivors/Total ([3]; 16 mg/kg/dose): 1/6 | Median % T/C ([3]; 16 mg/kg/dose): 143% | 30 Day Survivors/Total ([4]; 1 mg/kg/dose): 0/6 | Approx. Log10 Change in Tumor Burden at End of RX ([4]; 1 mg/kg/dose): ~3.0 log10 | Median % T/C ([4]; 1 mg/kg/dose): 113% | 30 Day Survivors/Total ([4]; 2 mg/kg/dose): 0/6 | Approx. Log10 Change in Tumor Burden at End of RX ([4]; 2 mg/kg/dose): ~2.5 log10 | Median % T/C ([4]; 2 mg/kg/dose): 144% | 30 Day Survivors/Total ([4]; 4 mg/kg/dose): 2/6 | Approx. Log10 Change in Tumor Burden at End of RX ([4]; 4 mg/kg/dose): ~-1.2 log10 | Median % T/C ([4]; 4 mg/kg/dose): 209% | 30 Day Survivors/Total ([4]; 8 mg/kg/dose): 3/6 | Approx. Log10 Change in Tumor Burden at End of RX ([4]; 8 mg/kg/dose): ~-5.9 log10 | Median % T/C ([4]; 8 mg/kg/dose): 348% | 30 Day Survivors/Total ([4]; 16 mg/kg/dose): 0/6 | Median % T/C ([4]; 16 mg/kg/dose): 96%
